Tests used:
gonadectomized mice = experiment: Inescapable foot shock stress followed by female urine preference; assay type: in vivo, mouse; settings: 10 mm silastic implant; for stress-induced female urine preference deficits: orchiectomized males, inescapable foot shock
Experimental: Determine effects of E2 on gonadectomy-induced susceptibility to inescapable traumatic shock stress in males and females. Most of these experiments assess the effects of social defeat stress. In this experiment the effects of an alternative type of stress-inescapable foot shocks are assessed—to determine whether the observed biological effects of E2 are stress specific. […] The effects of this stress on maladaptive behaviors and their possible reversal by testosterone and E2 are assessed. The following groups of mice are used for this experiment: (1) Sham Surgery+empty silastic tube; (2) ORX+empty silastic tube; (3) Sham Surgery+testosterone (10 mm) containing silastic tube; (4) ORX+testosterone (10 mm) containing silastic tube; (5) Sham Surgery+E2 (10 mm) containing silastic tube; (6) ORX+E2 (10 mm) containing silastic tube. Mice are exposed to inescapable foot shock (0.3 mA shocks; 180 shocks at 15 sec intervals) in a two-chambered shuttle box with a permanent divider in place. Controls are placed in the same chambers but will not receive shocks. Twenty-four hours later mice are subsequently tested for social interaction and female urine preference. As a comparison to male results, a similar experiment is conducted in females with the following groups: (1) Sham Surgery+empty silastic tube; (2) OVX+empty silastic tube; (3) Sham Surgery+E2 (10 mm) containing silastic tube; (4) OVX+E2 (10 mm) containing silastic tube. It is predicted that the effects of orchiectomy in males are reproduced to enhance stress-induced decreases in female urine preference deficits, which will be prevented by both testosterone and E2.

[1] = test system: ERβ-expressing BLA-to-NAc neurons; experiment: cFos immunofluorescence of ERβ projections to the NAc after E2 and SSDS; assay type: in vivo, mouse
C3 expression = settings: rat, in vivo; cited from earlier work
[2] = test system: TRPM-2, ODC, AR and ERα expression; settings: in vivo; cited from earlier work

| Compound | stress-induced female urine preference deficits (gonadectomized mice) | effects of ovariectomy plus foot shock stress (gonadectomized mice; ovariectomized females) | activation of ERβ-expressing BLA-to-NAc neurons (c-Fos) ([1]; orchiectomized mice, acute treatment prior to SSDS) | activation of the other strong ERβ-projections to the NAc (c-Fos) ([1]; prefrontal, cingulate and insular cortex projections) | uterus C3 expression (C3 expression) | expression of TRPM-2, ODC, AR and ERα in the prostate gland [2] |
| --- | --- | --- | --- | --- | --- | --- |
| C[C@]12CC[C@@H]3c4ccc(O)cc4CC[C@H]3[C@@H]1CC[C@@H]2O [Example E2, 17β-Estradiol] | prevented | prevented by the replacement of E2 | activated at a significantly higher degree | activation of any of the other strong ERβ-projections to the NAc in response to E2 was observed | increases C3 expression | decreases in the expression |
| C[C@]12CC[C@H]3[C@@H](CCC4=CC(=O)CC[C@@]43C)[C@@H]1CC[C@@H]2O [Testosterone, testosterone] | prevented | – | – | – | – | – |
